Measured values reported in patent publication US11939319B2, “Pyridinyl and pyrazinyl-(asa)indolsulfonamides” (UCB Pharma GmbH, priority 2018, dated 2024).

Target: GPR17 (Homo sapiens, UniProt Q13304)
Test: cAMP accumulation functional assay (HTRF) in CHO hGPR17 cells
Assay type: cell-based
Design: host or cells: Flp-In T-REx CHO cells, expression induced with doxycycline
Settings: Schild analysis against MDL29,951, 5 μM forskolin, activity range, read-out: cAMP assay pA2 (converted)
Protocol: Flp-In T-REx CHO cells stably expressing human GPR17 receptor (CHO hGPR17) from Evi Kostenis' lab (Bonn University, Germany) were cultured at 37° C. in a humidified atmosphere of 5% CO2. Cells were grown in DMEM with Nutrient Mixture F-12 supplemented with hygromycin B (500 μg/ml) and blasticidin (30 μg/ml). Expression from the Flp-In locus was induced by treatment with doxycycline (1 μg/ml) for 16-20 h prior assays.
GPR17 activation can also recruit Gi-type G-protein signaling, resulting in a decrease of intracellular cyclic adenosine monophosphate (cAMP). Intracellular cAMP changes can be measured using the HTRF cAMP dynamic assay kit from CisBio (Codolet, France). Using homogenous time-resolved fluorescence technology (HTRF), the assay is based on competition between native cAMP produced by cells and cAMP labelled with the dye d2. The tracer binding was determined by an anti-cAMP antibody labeled with cryptate.
CHO hGPR17 were detached with PBS containing EDTA and dispatched in black 384-well plates with 5,000 cells per well. Cells were first incubated for 30 minutes at room temperature in HBSS Hepes (pH 7.4) containing vehicle or varying concentrations of test GPR17 antagonist/inverse agonist compounds. Then, a dose response curve of MDL29,951 GPR17 agonist (typically from 10^−5M to 10^−10M) was added on vehicle and on each test GPR17 antagonist/inverse agonist compound concentration in a final volume of 20 μL HBSS Hepes buffer (pH 7.4) containing 1% DMSO, 5 μM forskolin and 0.1 mM IBMX. After 60 minutes incubation at room temperature, the reaction is terminated and the cells lysed by adding the d2 detection reagent and the cryptate reagent in 10 μL lysis buffer each according to manufacturer's instructions. After 60 minutes incubation, changes in cAMP concentrations are measured according to manufacturer's instructions using an Envision plate reader with laser excitation. All incubations were performed in duplicate. Data was analyzed using GraphPad Prism software using the 4-parameter logistic equation to measure MDL29,951 pEC50s in absence and presence of GPR17 antagonist/inverse agonist test compounds. Dose ratio (DR) were plotted against antagonist concentrations and Schild analysis provided estimated affinity pA2 of GPR17 antagonist/inverse agonist test compounds.
The activities of the Example compounds tested are depicted in the table below. The activity ranges A, B and C refer to pA2 values in the cAMP assay as follows: “A”: pA2 6.5≤x<7.5, “B”: pA2 7.5≤x<8.5, “C”: 8.5≤pA2.

Sequence of GPR17 (Q13304 29-367 limits assumed): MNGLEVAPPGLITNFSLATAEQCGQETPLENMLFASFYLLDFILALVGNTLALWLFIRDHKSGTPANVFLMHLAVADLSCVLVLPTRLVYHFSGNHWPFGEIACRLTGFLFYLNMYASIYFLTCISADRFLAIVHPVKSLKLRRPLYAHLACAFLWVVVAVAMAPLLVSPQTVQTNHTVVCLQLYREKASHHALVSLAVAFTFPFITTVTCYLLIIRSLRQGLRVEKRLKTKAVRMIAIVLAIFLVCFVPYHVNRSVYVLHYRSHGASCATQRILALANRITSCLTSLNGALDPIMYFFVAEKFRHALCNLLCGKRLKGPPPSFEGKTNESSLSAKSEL

Kb	SMILES
≤ 3.16 nM	COc1nc(OCC(F)F)c(F)cc1NS(=O)(=O)c1c[nH]c2cc(OC(F)F)ccc12 [Example I-51, N-[6-(2,2-difluoroethoxy)-5-fluoro-2-methoxypyridin-3-yl]-6-(difluoromethoxy)-1H-indole-3-sulfonamide]
31.6 to 316 nM	COc1ncc(F)cc1NS(=O)(=O)c1c[nH]c2nc(Cl)ccc12 [Example I-49, 6-chloro-N-(5-fluoro-2-methoxypyridin-3-yl)-1H-pyrrolo[2,3-b]pyridine-3-sulfonamide]
31.6 to 316 nM	COc1nc(Cl)c(F)cc1NS(=O)(=O)c1c[nH]c2nc(OCc3ccccc3)ccc12 [Example I-72, N-(6-chloro-5-fluoro-2-methoxypyridin-3-yl)-6-phenylmethoxy-1H-pyrrolo[2,3-b]pyridine-3-sulfonamide]
31.6 to 316 nM	COc1ccc(NS(=O)(=O)c2c[nH]c3cc(Cl)ccc23)c(OC)n1 [Example I-61, 6-chloro-N-(2,6-dimethoxypyridin-3-yl)-1H-indole-3-sulfonamide]
≤ 3.16 nM	O=S(=O)(Nc1cc(F)c(OCC(F)F)nc1F)c1c[nH]c2cc(Cl)ccc12 [Example I-67, 6-chloro-N-[6-(2,2-difluoroethoxy)-2,5-difluoropyridin-3-yl]-1H-indole-3-sulfonamide]
≤ 3.16 nM	COc1nc(OCC(F)F)c(F)cc1NS(=O)(=O)c1c[nH]c2c1ccc1cccnc12 [Example I-69, N-[6-(2,2-difluoroethoxy)-5-fluoro-2-methoxypyridin-3-yl]-1H-pyrrolo[3,2-h]quinoline-3-sulfonamide]
≤ 3.16 nM	COc1nc(OC(F)F)c(F)cc1NS(=O)(=O)c1c[nH]c2cc(C)ccc12 [Example I-60, N-[6-(difluoromethoxy)-5-fluoro-2-methoxypyridin-3-yl]-6-methyl-1H-indole-3-sulfonamide]
≤ 3.16 nM	COc1nc(OC(F)F)c(F)cc1NS(=O)(=O)c1c[nH]c2c1ccc1cccnc12 [Example I-68, N-[6-(difluoromethoxy)-5-fluoro-2-methoxypyridin-3-yl]-1H-pyrrolo[3,2-h]quinoline-3-sulfonamide]
≤ 3.16 nM	COc1nc(C2CC2)c(F)cc1NS(=O)(=O)c1c[nH]c2cc(Cl)ccc12 [Example I-50, 6-chloro-N-(6-cyclopropyl-5-fluoro-2-methoxypyridin-3-yl)-1H-indole-3-sulfonamide]
≤ 3.16 nM	COc1nc(OCC(F)F)c(F)cc1NS(=O)(=O)c1c[nH]c2nc(Cl)c(Br)cc12 [Example I-71, 5-bromo-6-chloro-N-[6-(2,2-difluoroethoxy)-5-fluoro-2-methoxypyridin-3-yl]-1H-pyrrolo[2,3-b]pyridine-3-sulfonamide]
3.16 to 31.6 nM	COc1nc(OCC(F)F)ccc1NS(=O)(=O)c1c[nH]c2nc(C(F)F)ccc12 [Example I-53, N-[6-(2,2-difluoroethoxy)-2-methoxypyridin-3-yl]-6-(difluoromethyl)-1H-pyrrolo[2,3-b]pyridine-3-sulfonamide]
3.16 to 31.6 nM	COc1nc(OCC(F)F)c(F)cc1NS(=O)(=O)c1c[nH]c2cc(C#N)ccc12 [Example I-65, 6-cyano-N-[6-(2,2-difluoroethoxy)-5-fluoro-2-methoxypyridin-3-yl]-1H-indole-3-sulfonamide]
≤ 3.16 nM	COc1ccc2c(S(=O)(=O)Nc3cc(F)c(OC(F)F)nc3OC)c[nH]c2c1 [Example I-63, N-[6-(difluoromethoxy)-5-fluoro-2-methoxypyridin-3-yl]-6-methoxy-1H-indole-3-sulfonamide]
≤ 3.16 nM	COc1ccc2c(S(=O)(=O)Nc3cc(F)c(OCC(F)F)nc3OC)c[nH]c2c1 [Example I-64, N-[6-(2,2-difluoroethoxy)-5-fluoro-2-methoxypyridin-3-yl]-6-methoxy-1H-indole-3-sulfonamide]
≤ 3.16 nM	COc1nc(OCC(F)F)c(F)cc1NS(=O)(=O)c1c[nH]c2cc(C(F)F)ccc12 [Example I-62, N-[6-(2,2-difluoroethoxy)-5-fluoro-2-methoxypyridin-3-yl]-6-(difluoromethyl)-1H-indole-3-sulfonamide]
≤ 3.16 nM	COc1nc(OC(F)F)c(F)cc1NS(=O)(=O)c1c[nH]c2cc(C#N)ccc12 [Example I-66, 6-cyano-N-[6-(difluoromethoxy)-5-fluoro-2-methoxypyridin-3-yl]-1H-indole-3-sulfonamide]
3.16 to 31.6 nM	COc1nc(OC)c(NS(=O)(=O)c2c[nH]c3nc(C(F)F)ccc23)cc1F [Example I-56, 6-(difluoromethyl)-N-(5-fluoro-2,6-dimethoxypyridin-3-yl)-1H-pyrrolo[2,3-b]pyridine-3-sulfonamide]
3.16 to 31.6 nM	Cc1nc(F)c(NS(=O)(=O)c2c[nH]c3nc(C(F)F)ccc23)cc1F [Example I-57, 6-(difluoromethyl)-N-(2,5-difluoro-6-methylpyridin-3-yl)-1H-pyrrolo[2,3-b]pyridine-3-sulfonamide]

The remaining lines, values behind:

SMILES	Kb
O=S(=O)(Nc1cc(F)c(OCC(F)F)nc1F)c1c[nH]c2nc(Cl)ccc12 [Example I-44, 6-chloro-N-[6-(2,2-difluoroethoxy)-2,5-difluoropyridin-3-yl]-1H-pyrrolo[2,3-b]pyridine-3-sulfonamide]	31.6 to 316 nM
O=S(=O)(Nc1cc(F)c(OCC(F)F)nc1F)c1c[nH]c2nc(C(F)F)ccc12 [Example I-30, N-[6-(2,2-difluoroethoxy)-2,5-difluoro-3-pyridyl]-6-(difluoromethyl)-1H-pyrrolo[2,3-b]pyridine-3-sulfonamide]	31.6 to 316 nM
COc1nc(OCC(F)F)ccc1NS(=O)(=O)c1c[nH]c2cc(Cl)ccc12 [Example I-38, 6-chloro-N-[6-(2,2-difluoroethoxy)-2-methoxypyridin-3-yl]-1H-indole-3-sulfonamide]	≤ 3.16 nM
COc1nc(Cl)c(F)cc1NS(=O)(=O)c1c[nH]c2nc(C(F)F)ccc12 [Example I-29, N-(6-chloro-5-fluoro-2-methoxypyridin-3-yl)-6-(difluoromethyl)-1H-pyrrolo[2,3-b]pyridine-3-sulfonamide]	3.16 to 31.6 nM
COc1nc(OCCF)c(F)cc1NS(=O)(=O)c1c[nH]c2cc(Cl)ccc12 [Example I-12, 6-chloro-N-[5-fluoro-6-(2-fluoroethoxy)-2-methoxypyridin-3-yl]-1H-indole-3-sulfonamide]	≤ 3.16 nM
COc1nc(OCCF)c(F)cc1NS(=O)(=O)c1c[nH]c2nc(Cl)ccc12 [Example I-36, 6-chloro-N-[5-fluoro-6-(2-fluoroethoxy)-2-methoxypyridin-3-yl]-1H-pyrrolo[2,3-b]pyridine-3-sulfonamide]	≤ 3.16 nM
COc1nc(Cl)cnc1NS(=O)(=O)c1c[nH]c2cc(Cl)ccc12 [Example I-11, 6-chloro-N-(5-chloro-3-methoxypyrazin-2-yl)-1H-indole-3-sulfonamide]	≤ 3.16 nM
COc1cc(OC(F)F)ncc1NS(=O)(=O)c1c[nH]c2cc(Cl)ccc12 [Example I-40, 6-chloro-N-[6-(difluoromethoxy)-4-methoxypyridin-3-yl]-1H-indole-3-sulfonamide]	3.16 to 31.6 nM
O=S(=O)(Nc1cc(F)c(C2CC2)nc1F)c1c[nH]c2nc(Cl)ccc12 [Example I-47, 6-chloro-N-(6-cyclopropyl-2,5-difluoropyridin-3-yl)-1H-pyrrolo[2,3-b]pyridine-3-sulfonamide]	3.16 to 31.6 nM
COc1nc(Cl)ccc1NS(=O)(=O)c1c[nH]c2cc(C(F)F)ccc12 [Example I-27, N-(6-chloro-2-methoxypyridin-3-yl)-6-(difluoromethyl)-1H-indole-3-sulfonamide]	31.6 to 316 nM
COc1nc(OC(F)F)c(F)cc1NS(=O)(=O)c1c[nH]c2nc(Cl)ccc12 [Example I-22, 6-chloro-N-[6-(difluoromethoxy)-5-fluoro-2-methoxypyridin-3-yl]-1H-pyrrolo[2,3-b]pyridine-3-sulfonamide]	≤ 3.16 nM
COc1nc(Cl)ccc1NS(=O)(=O)c1c[nH]c2nc(C(F)F)ccc12 [Example I-28, N-(6-chloro-2-methoxypyridin-3-yl)-6-(difluoromethyl)-1H-pyrrolo[2,3-b]pyridine-3-sulfonamide]	31.6 to 316 nM
O=S(=O)(Nc1cnc(Cl)cc1Cl)c1c[nH]c2cc(Cl)ccc12 [Example I-26, 6-chloro-N-(4,6-dichloropyridin-3-yl)-1H-indole-3-sulfonamide]	31.6 to 316 nM
COc1nc(OCC(F)F)ccc1NS(=O)(=O)c1c[nH]c2nc(Cl)ccc12 [Example I-45, 6-chloro-N-[6-(2,2-difluoroethoxy)-2-methoxypyridin-3-yl]-1H-pyrrolo[2,3-b]pyridine-3-sulfonamide]	3.16 to 31.6 nM
